Values quoted from earlier work in publication PMC13064256, “Integrative preclinical strategy for pharmacokinetic profiling and candidate selection of 3-hydroxypropanamidines: a promising antimalarial class” (Malaria Journal, 2026).

Parameters: method as in PMID 31898492

- Clint in HLMs: 26.9 µL/min/mg
Structure (SMILES): CCCCN(CCCC)CCC(O)c1cc2c(Cl)cc(Cl)cc2c2cc(C(F)(F)F)ccc12 (stereo not shown) [halofantrine]
